For one data set, the target named is NR1A/2C NMDA receptor (Rattus norvegicus, UniProt P35439+Q00961). The data set can be described thus: Xenopus oocyte expression system, two-electrode voltage clamp, NR1A/2C. Format: cell-based. An excerpt:
(§1) Electrophysiological assays may be utilized to characterize the actions of potential subtype-selective ligands at NMDA receptors expressed in Xenopus oocytes. The ligand may be assayed at the different subunit combinations of cloned rat NMDA receptors corresponding to the four putative NMDA receptor subtypes (Moriyoshi et al., Nature (Lond.) 354:31-37 (1991); Monyer et al., Science (Washington, D.C.) 256:1217-1221 (1992); Kutsuwada et al., Nature (Lond.) 358:36-41 (1992); Sugihara et al., Biochem. Biophys. Res. Comm. 185:826-832 (1992)).
(§2) Using fixed saturating concentrations of agonists (glutamate 100 μM, glycine 1-10 μM depending on subunit combination), the inhibitory potency of a putative subtype-selective ligand may be assayed at the NMDA receptors assembled from NR1A/2A, NR1A/2B, NR1A/2C and NR1A/2D subunit combinations.
(§3) The Xenopus oocyte expression system. Mature female Xenopus laevis were anaesthetized (20-40 min) using 0.15% 3-aminobenzoic acid ethyl ester (MS-222) and 2-4 ovarian lobes were surgically removed. Oocytes at developmental stages IV-VI (Dumont, J. N., J. Morphol. 136:153-180 (1972)), were dissected from the ovary still surrounded by enveloping ovarian tissues. Follicle-enclosed oocytes were micro-injected with 1:1 mixtures of cRNA:NR1A+NR2A, 2B, 2C or 2D; injecting ˜2, 5, or 20 ng of RNA encoding each receptor subunit. NR1A encoding cRNA was injected alone at ˜20 ng. Oocytes were stored in Barth's medium containing (in mM): NaCl, 88; KCl, 1; CaCl2, 0.41; Ca(NO3)2, 0.33; MgSO4, 0.82; NaHCO3, 2.4; HEPES 5; pH 7.4, with 0.1 mg/mL gentamycin sulphate. While oocytes were still surrounded by enveloping ovarian tissues the Barth's medium was supplemented with 0.1% bovine serum. Oocytes were defolliculated 1-2 days following injections by treatment with collagenase (0.5 mg/mL Sigma Type I for 0.5-1 hr) (Miledi and Woodward, J. Physiol. (Lond.) 416:601-621 (1989)) and subsequently stored in serum-free medium.
(§4) Electrical recordings were made using a conventional two-electrode voltage clamp (Dagan TEV-200) over periods ranging between 3-21 days following injection. Oocytes were placed in a 0.1 mL recording chamber continuously perfused (5-15 mL min^−1) with frog Ringer's solution containing (in mM): NaCl, 115; KCl, 2; CaCl2, 1.8; HEPES, 5; pH 7.4. Drugs were applied by bath perfusion. When using the more rapid flow rates, half-times for mid-chamber solution changes were between 2-3 sec, however, exchange rates for drug solutions at the oocyte surface (i.e. beneath the vitelline envelope and among the tangles of microvilli) were probably considerably longer (Woodward et al., Mol. Pharmacol. 41:89-103 (1992)). Zero-Ca^2+/Ba^2+ Ringer had the composition (in mM): NaCl, 115; KCl, 2; BaCl2, 1.8; HEPES, 5; pH 7.4. Intraoocyte injections were made by pneumatic pressure-pulse ejection from micropipettes (Miledi and Parker, J. Physiol. (Lond.) 357:173-183 (1984)). Injection solutions of EGTA (40-400 mM) and BAPTA (50-500 mM) were made up in H2O, pH adjusted to 7.4 with KOH or HCl, and filtered to minimize plugging (Acrodisc-13, […]). Pressure was set between 200-400 kPa. The volume of injections was regulated by adjusting the time of pulses (0.1-1 sec) and was estimated by measuring the diameters of ejected droplets.
(§5) Concentration-inhibition curves were fit with equation 2.
(§6) I/Icontrol=1/(1+([antagonist]/10^−pIC50)^n) Eq. 2
(§7) in which Icontrol is the current evoked by agonists alone, pIC50=−log IC50, […] is the concentration of antagonist that produces half maximal inhibition, and n is the slope factor. For incomplete curves analysis by fitting was unreliable and IC50 values were calculated by simple regression over linear portions of the curves (Origin: Microcal Software).
(§8) Drugs were initially dissolved at concentrations of 10-100 mM in DMSO. Dilutions were then made to generate a series of DMSO stock solutions over the range 10 μM to 100 mM. Working solutions were made by 1000-3000 fold dilution of stocks into Ringer. […]
(In general: Two-electrode voltage clamp is typically applied to oocytes expressing channels or transporters.)

A further data set concerns the target NR1A/2A NMDA receptor (Rattus norvegicus, UniProt P35439+Q00959). The data set can be described thus: Xenopus oocyte expression system, two-electrode voltage clamp, NR1A/2A. Format: cell-based.
Text: as §1, §2, §3, §4, §5, §6, §7, §8

The subject of data set [1] is Maximal Electroshock-induced Seizures. As to the kind of experiment: Maximal electroshock-induced seizures. The data set is classed as in vivo, mice. The following applies: Mus musculus, read-out: Mes. ED50. The protocol: Maximal Electroshock-induced Seizures. Seizures were induced by application of current (50 mA, 60 pulses/sec, 0.8 sec pulse width, 1 sec duration, d.c.) through saline-coated corneal electrodes using a Ugo Basile ECT device (Model 7801). […] A tonic seizure was defined as a hindlimb extension in excess of 90 degrees from the plane of the body. Results were treated in a quantal manner.
On the technique in general: The maximal electroshock test induces tonic seizures with an electrical stimulus.

The target in the next data set is NR1A/2B NMDA receptor (Rattus norvegicus, UniProt P35439+Q00960). The data set can be described thus: Xenopus oocyte expression system, two-electrode voltage clamp, NR1A/2B. Format: cell-based.
Text: as §1, §2, §3, §4, §5, §6, §7, §8

Setting [2] is: cloned NR1A/2C subunits expressed in Xenopus oocytes, inhibition of agonist-evoked membrane current, read-out: 1A/2C IC50.
Where [3] appears, read: cloned NR1A/2A subunits expressed in Xenopus oocytes, inhibition of agonist-evoked membrane current, read-out: 1A/2A IC50.
[4] abbreviates: cloned NR1A/2B subunits expressed in Xenopus oocytes, inhibition of agonist-evoked membrane current, read-out: 1A/2B IC50.
Where [5] appears, read: mice, tonic hindlimb extensor response after corneal current 50 mA.

Counter-ions that a name gives are not always drawn. Like-named read-outs stand apart in the source and are kept apart here.

Chain of NR1A/2A NMDA receptor (Q00959 20-1464 limits assumed, other chains not shown): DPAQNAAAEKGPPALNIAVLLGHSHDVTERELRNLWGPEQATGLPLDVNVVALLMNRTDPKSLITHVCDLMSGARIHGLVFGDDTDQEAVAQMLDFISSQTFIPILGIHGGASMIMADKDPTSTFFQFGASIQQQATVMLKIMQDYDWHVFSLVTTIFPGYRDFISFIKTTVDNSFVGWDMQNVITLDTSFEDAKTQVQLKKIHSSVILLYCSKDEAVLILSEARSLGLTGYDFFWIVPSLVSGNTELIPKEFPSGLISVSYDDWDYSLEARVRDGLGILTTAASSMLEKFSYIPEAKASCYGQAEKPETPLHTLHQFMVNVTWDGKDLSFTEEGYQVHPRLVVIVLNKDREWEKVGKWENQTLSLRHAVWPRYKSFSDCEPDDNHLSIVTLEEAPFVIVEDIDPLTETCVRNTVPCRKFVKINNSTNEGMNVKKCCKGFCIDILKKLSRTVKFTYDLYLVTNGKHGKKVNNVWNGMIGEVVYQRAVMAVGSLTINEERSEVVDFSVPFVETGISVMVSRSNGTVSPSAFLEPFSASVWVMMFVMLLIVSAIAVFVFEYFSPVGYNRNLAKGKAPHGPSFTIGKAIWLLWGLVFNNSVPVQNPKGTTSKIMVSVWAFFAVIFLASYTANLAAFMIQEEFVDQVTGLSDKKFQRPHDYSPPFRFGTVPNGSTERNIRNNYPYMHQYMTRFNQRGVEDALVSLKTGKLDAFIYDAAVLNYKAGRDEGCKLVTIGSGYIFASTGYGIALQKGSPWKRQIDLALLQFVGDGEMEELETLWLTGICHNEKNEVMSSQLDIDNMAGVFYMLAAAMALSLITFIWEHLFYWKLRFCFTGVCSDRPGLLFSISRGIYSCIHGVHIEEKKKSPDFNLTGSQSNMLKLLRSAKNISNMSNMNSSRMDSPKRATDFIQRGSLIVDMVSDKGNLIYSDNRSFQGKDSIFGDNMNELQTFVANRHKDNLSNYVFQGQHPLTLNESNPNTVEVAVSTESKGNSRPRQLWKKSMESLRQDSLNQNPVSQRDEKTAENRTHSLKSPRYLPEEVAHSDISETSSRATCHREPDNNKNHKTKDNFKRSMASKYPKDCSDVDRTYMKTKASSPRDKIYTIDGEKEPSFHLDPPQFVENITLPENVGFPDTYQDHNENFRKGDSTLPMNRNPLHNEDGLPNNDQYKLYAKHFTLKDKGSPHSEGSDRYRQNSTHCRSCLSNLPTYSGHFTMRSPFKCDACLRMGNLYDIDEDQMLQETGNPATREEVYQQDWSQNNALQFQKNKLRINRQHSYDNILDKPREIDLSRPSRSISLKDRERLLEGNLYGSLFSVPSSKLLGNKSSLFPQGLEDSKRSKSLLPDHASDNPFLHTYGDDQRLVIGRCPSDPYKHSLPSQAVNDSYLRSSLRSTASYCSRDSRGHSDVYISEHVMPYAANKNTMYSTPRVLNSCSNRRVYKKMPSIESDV
Chain of NR1A/2C NMDA receptor (Q00961 20-1237, other chains not shown): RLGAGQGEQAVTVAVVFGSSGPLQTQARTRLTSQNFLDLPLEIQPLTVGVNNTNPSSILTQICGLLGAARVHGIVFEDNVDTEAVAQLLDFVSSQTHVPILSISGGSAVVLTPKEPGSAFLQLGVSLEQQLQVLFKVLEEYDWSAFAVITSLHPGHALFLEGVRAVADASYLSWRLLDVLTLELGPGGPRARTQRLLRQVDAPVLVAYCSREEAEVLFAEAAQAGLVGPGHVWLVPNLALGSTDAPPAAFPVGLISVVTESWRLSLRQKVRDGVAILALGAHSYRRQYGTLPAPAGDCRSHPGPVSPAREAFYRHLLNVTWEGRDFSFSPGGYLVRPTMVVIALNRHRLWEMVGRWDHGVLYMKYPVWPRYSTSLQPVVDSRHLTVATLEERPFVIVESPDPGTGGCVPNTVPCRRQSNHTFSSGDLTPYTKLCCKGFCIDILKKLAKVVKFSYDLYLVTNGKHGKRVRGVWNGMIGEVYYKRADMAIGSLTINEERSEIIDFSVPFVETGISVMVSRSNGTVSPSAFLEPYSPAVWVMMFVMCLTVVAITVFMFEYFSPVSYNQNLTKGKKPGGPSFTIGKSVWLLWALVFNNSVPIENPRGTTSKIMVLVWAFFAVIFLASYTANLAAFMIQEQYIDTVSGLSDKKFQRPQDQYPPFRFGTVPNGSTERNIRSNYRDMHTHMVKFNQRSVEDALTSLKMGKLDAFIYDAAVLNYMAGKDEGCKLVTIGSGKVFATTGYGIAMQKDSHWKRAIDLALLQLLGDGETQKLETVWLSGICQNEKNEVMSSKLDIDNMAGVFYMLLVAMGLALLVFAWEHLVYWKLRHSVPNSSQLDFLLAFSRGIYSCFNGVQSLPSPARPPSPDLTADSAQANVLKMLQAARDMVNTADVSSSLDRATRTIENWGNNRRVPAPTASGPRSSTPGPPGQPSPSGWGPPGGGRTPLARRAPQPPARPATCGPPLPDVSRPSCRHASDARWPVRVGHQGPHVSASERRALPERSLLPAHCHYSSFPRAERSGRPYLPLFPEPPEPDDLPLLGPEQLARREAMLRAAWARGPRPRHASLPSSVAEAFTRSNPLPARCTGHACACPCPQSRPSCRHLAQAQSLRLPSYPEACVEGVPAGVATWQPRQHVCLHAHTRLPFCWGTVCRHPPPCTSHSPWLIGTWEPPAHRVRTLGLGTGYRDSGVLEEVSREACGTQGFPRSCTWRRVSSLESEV
Chain of NR1A/2B NMDA receptor (Q00960 27-1482, other chains not shown): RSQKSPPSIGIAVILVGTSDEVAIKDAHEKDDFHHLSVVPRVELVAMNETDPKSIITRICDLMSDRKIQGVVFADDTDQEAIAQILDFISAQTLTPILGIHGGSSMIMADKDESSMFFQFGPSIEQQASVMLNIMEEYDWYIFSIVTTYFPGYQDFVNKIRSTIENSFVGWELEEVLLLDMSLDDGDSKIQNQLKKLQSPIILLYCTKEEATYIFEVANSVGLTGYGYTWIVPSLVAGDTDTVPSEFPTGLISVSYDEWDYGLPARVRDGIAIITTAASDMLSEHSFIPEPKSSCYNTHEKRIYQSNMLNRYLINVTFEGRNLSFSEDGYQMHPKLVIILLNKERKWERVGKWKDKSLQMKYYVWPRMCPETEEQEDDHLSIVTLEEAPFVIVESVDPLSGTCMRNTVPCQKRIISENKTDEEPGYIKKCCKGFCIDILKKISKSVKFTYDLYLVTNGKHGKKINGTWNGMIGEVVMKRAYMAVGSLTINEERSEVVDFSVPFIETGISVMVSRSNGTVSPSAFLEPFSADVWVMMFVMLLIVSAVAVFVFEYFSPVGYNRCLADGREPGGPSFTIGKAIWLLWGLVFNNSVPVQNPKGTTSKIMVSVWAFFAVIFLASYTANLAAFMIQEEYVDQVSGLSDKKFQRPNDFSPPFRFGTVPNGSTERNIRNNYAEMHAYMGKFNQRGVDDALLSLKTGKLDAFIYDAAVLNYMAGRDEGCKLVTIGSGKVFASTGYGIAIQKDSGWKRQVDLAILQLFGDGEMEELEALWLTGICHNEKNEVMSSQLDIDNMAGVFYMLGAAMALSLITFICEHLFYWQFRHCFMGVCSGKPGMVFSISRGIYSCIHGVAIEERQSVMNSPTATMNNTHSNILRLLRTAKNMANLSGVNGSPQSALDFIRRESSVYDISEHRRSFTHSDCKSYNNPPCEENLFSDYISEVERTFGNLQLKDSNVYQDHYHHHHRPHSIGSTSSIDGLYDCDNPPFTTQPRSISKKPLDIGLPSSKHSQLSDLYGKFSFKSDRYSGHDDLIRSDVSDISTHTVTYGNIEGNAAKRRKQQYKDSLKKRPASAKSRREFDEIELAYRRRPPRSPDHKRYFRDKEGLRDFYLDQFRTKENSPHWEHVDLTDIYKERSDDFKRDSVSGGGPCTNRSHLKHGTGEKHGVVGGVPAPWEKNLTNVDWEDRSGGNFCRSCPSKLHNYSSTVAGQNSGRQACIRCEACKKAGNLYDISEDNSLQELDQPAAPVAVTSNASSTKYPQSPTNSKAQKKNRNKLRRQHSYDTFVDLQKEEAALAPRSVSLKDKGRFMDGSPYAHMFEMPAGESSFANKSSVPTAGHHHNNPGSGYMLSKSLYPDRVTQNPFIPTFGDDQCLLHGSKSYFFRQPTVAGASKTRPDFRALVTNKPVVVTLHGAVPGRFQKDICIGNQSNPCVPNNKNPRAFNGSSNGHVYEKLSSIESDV

Turning to `OCCCN1CCC(Cc2ccccc2)CC1` [Ex. 83, 4-Benzyl-1-(3-hydroxypropyl)piperidine hydrobromide], the IC50 is over 300 µM on NR1A/2C NMDA receptor (setting [2]), 224 µM at NR1A/2A NMDA receptor (setting [3]) and 1.8 µM on NR1A/2B NMDA receptor (setting [4]). Also, the 50% effective dose (ED50) in data set [1] amounted to 3.5 mg/kg.
In the case of `CC(CCO)N1CCC(Cc2ccccc2)CC1` (stereo not shown) [Ex. 84, 4-Benzyl-1-(3-hydroxy-1-methylpropyl)piperidine], the melting point was in the range of 74 to 76 °C. Further, on NR1A/2C NMDA receptor (setting [2]), the IC50 is over 300 µM. Also, the IC50 on NR1A/2A NMDA receptor (setting [3]) is 270 µM. The IC50 on NR1A/2B NMDA receptor (setting [4]) was 6 µM.
On the same counts, the results for `OCC(O)CN1CCC(Cc2ccccc2)CC1` (stereo not shown) [Ex. 85, 4-Benzyl-1-(2,3-dihydroxypropyl)piperidine] are 92 to 94 °C, over 300 µM, over 300 µM and 6 µM.
Take `OCCCN1CCC(Cc2ccc(Cl)cc2)CC1` [Ex. 89, 4-(4-Chlorobenzyl)-1-(3-hydroxypropyl) piperidine hydrobromide]: the figures for the IC50 on NR1A/2C NMDA receptor (setting [2]), on NR1A/2A NMDA receptor (setting [3]) and on NR1A/2B NMDA receptor (setting [4]) were over 100 µM, 150 µM and 0.3 µM, respectively. Also, the ED50 in data set [1] (setting [5]) stood at 5 mg/kg.
Consider `CC(O)CCN1CCC(Cc2ccc(F)cc2)CC1` (stereo not shown) [Ex. 91, 4-(4-Fluorobenzyl)-1-(3-hydroxybutyl) piperidine hydrochloride], for which the IC50 was over 300 µM at NR1A/2C NMDA receptor (setting [2]), 230 µM at NR1A/2A NMDA receptor (setting [3]) and 2.5 µM at NR1A/2B NMDA receptor (setting [4]). For the same molecule, in data set [1], the ED50 came to 6 mg/kg.
As to `COc1ccc(CC2CCN(CCCO)CC2)cc1` [Ex. 93, 1-(3-Hydroxypropyl)-4-(4-methoxybenzyl) piperidine hydrobromide], the figures for the IC50 on NR1A/2C NMDA receptor (setting [2]), at NR1A/2A NMDA receptor (setting [3]) and at NR1A/2B NMDA receptor (setting [4]) were over 300 µM, over 300 µM and 9 µM, respectively. Moreover, in data set [1], the ED50 stood at 8 mg/kg.
Consider `CC(O)CCN1CCC(Cc2ccc(Cl)cc2)CC1.Cl` (stereo not shown) [Ex. 99, 4-(4-chlorobenzyl)-1-(3-hydroxybutyl) piperidine hydrochloride], for which the melting point lay in the range of 96 to 101 °C. For the same molecule, on NR1A/2C NMDA receptor (setting [2]), the IC50 is over 300 µM. Moreover, the IC50 at NR1A/2A NMDA receptor (setting [3]) is over 300 µM. In addition, the ED50 in data set [1] (setting [5]) came to 6 mg/kg. At NR1A/2B NMDA receptor (setting [4]), the IC50 came out at 1.6 µM.
On to `CC(O)CCN1CCC(Cc2ccccc2)CC1.Cl` (stereo not shown) [Ex. 100, 4-benzyl-1-(3-hydroxy-butyl) piperidine hydrochloride], for which the melting point lay within 133 to 135 °C. Further, at NR1A/2C NMDA receptor, the IC50 was over 300 µM. Also, the IC50 on NR1A/2A NMDA receptor was over 300 µM. Further, the ED50 in data set [1] was found to be 3.5 mg/kg. Besides, the IC50 at NR1A/2B NMDA receptor worked out at 3 µM.
The molecule `CC(C)(O)CCN1CCC(Cc2ccccc2)CC1.Cl` [Ex. 102, 4-benzyl-1-(3-hydroxy-3-methylbutyl) piperidine hydrochloride] had a melting point of 136 to 138 °C. Also, the IC50 at NR1A/2C NMDA receptor was over 300 µM. In addition, at NR1A/2A NMDA receptor, the IC50 is over 300 µM. Further, at NR1A/2B NMDA receptor, the IC50 turned out to be 3.5 µM.
Turning to `Oc1ccc(CCNC2=NCC(Cc3ccccc3)CN2)cc1` (stereo not shown) [Ex. 103, 2-[2-(4-Hydroyphenyl)ethylamino]-5-benzyl-1,3-diazacyclohexene], the melting point fell in the range of 153 to 155 °C. Further, the IC50 on NR1A/2C NMDA receptor (setting [2]) was 58 µM. Moreover, the IC50 on NR1A/2A NMDA receptor (setting [3]) was 3.5 µM. Also, the IC50 on NR1A/2B NMDA receptor (setting [4]) turned out to be 0.2 µM.
In turn, `Cc1ccc(CC2CCN(CCC(C)O)CC2)cc1.Cl` (stereo not shown) [Ex. 104, 4-(4-methylbenzyl)-1-(3-hydroxy-butyl) piperidine hydrochloride] displayed a melting point of 134 to 136 °C. The IC50 at NR1A/2C NMDA receptor (setting [2]) was over 300 µM. Further, the IC50 on NR1A/2A NMDA receptor (setting [3]) was found to be 110 µM. Moreover, the ED50 in data set [1] (setting [5]) amounted to 2 mg/kg. The IC50 on NR1A/2B NMDA receptor (setting [4]) amounted to 0.8 µM.
In the case of `Br.Fc1ccc(OCCNN2CCC(Cc3ccc(Cl)cc3)CC2)cc1` [Ex. 106, 4-(4-Chlorobenzyl)-1-(N-(2-(4-fluorophenoxy)ethyl)amino)piperidine hydrobromide], the melting point was 214 to 215 °C (dec.). Besides, on NR1A/2C NMDA receptor (setting [2]), the IC50 is 23 µM. Besides, on NR1A/2A NMDA receptor (setting [3]), the IC50 came out at 8.5 µM. For the same molecule, the IC50 at NR1A/2B NMDA receptor (setting [4]) is 5 µM.
With `Cl.Oc1ccc(OCCN2CCC(C[C@]34C[C@H]5C[C@H](C[C@H](C5)C3)C4)CC2)cc1` [Ex. 107, 4-(1-Adamantylmethyl)-1-(2-(4-hydroxyphenoxy)ethyl)piperidine], the melting point was 178 to 179 °C. For the same molecule, on NR1A/2C NMDA receptor (setting [2]), the IC50 came out at 75 µM. The IC50 on NR1A/2A NMDA receptor (setting [3]) was 250 µM. The IC50 at NR1A/2B NMDA receptor (setting [4]) came to 160 µM.

As usually defined, the ED50 is the dose at which the effect has come halfway, by size or by number of responders. For orientation: melting point means the temperature, or range, at which the solid turns liquid.

Source of the values: patent US6534522B2, “Subtype-selective NMDA receptor ligands and the use thereof” (Warner-Lambert Company, priority 1995, dated 2003).
